Assay results: patent US5087624A, “Chromic picolinate treatment” (Nutrition 21, priority 1990, dated 1992)
Several values for one entry are separate records, joined by “and”; a condition that tells them apart may be missing. Equal entries are not always repeated. Entries after “also recorded” stand apart in the source; their conditions may differ.

What was measured:
[1] = supplemental trivalent chromium; cited from earlier work
insulin = experiment: Binding to insulin
insulin receptors = experiment: Binding to insulin receptors
[2] = test system: Glucose Tolerance Factor activity; experiment: Glucose Tolerance Factor activity
[3] = Cross-over study in subjects with adult onset diabetes mellitus (EXAMPLE 4); format: in vivo, human
Excerpt: Normal values are 5.5% to 7.5%.

[4] = Double-blind cross-over study of serum lipids (EXAMPLE 3); format: in vivo, human
Description: The placebo contained only 5 mg calcium phosphate. […] Compliance by subjects was monitored by capsule count. The foregoing study protocol is illustrated in FIG. 1.
Student's t test and p values were determined with the program WORMSTAT^TM (available from Small Business Computers, New England, U.S.A.).

rats = experiment: Oral toxicity experiment; format: in vivo, rat
Description: In a toxicity experiment, rats weighing a mean of 223.4 g were given an oral suspension of 100 mg, 300 mg and 500 mg chromic tripicolinate in water. […] The tests were stopped at 500 mg because it was impossible to obtain a workable suspension beyond this level.

[5] = Absorption of orally given Cr-51 labelled chromium: radioactivity in liver and kidney; format: in vivo, male Sprague-Dawley rats; conditions: relative to chromic chloride, from Table 1
Excerpt: The solution was cooled to room temperature before use.

[6] = Anabolic effect in male weight-training students (EXAMPLE 5); format: in vivo, human
Description: This study was performed to evaluate the anabolic effect of chromic tripicolinate in male subjects.
At the start of the study, 10 male university students enrolled in weight training classes, were given, at random, a 40-day supply of capsules that contained either placebo (5 mg of calcium phosphate) or chromic tripicolinate (1.6 mg chromic tripicolinate admixed with 5 mg of […], which provided 200 ug of chromium). The identity of the capsules was known only to an individual who was not in any way involved in the study. During the 40-day period, each of the volunteers followed a prescribed weight lifting protocol for a total of 3 hours per week. Measurements taken at the beginning and again at the end of the study included various skin-fold thicknesses, bicep and calf circumferences, and body weight. Percent body fat was derived from the sum of the triceps, subscapular and chest skinfolds. Lean body mass was derived from anthropometrically-determined percent body fat: weight -(weight ×percent body fat).

[7] = start of 42-day treatment (baseline), mean ± SD of 28 subjects

## [Cl][Cr]([Cl])[Cl] [chromic chloride]
[1]
  risk factors associated with maturity-onset diabetes and cardiovascular diseases: associated with improvements of risk factors

## chromic tripicolinate
insulin
  binding to insulin: binds to insulin
Insulin receptors
  binding to insulin receptors: binds to insulin and insulin receptors
[2]
  Glucose Tolerance Factor activity: has Glucose Tolerance Factor activity
[3]; P was not <0.05
  HDL trend: trends were favorable
  cholesterol trend: trends were favorable
[3]; diabetic subjects
  LDL decrease: 8%
  blood pressure change: no significant changes
  fasting glucose change: significant decreases
  glycosylated hemoglobin change: significant decreases
  heart rate change: no significant changes
  temperature change: no significant changes
  weight change: no significant changes
[3]; treatment versus placebo groups
  Hemoglobin A1 C decrease: 12%
[4]; 28 subjects, 42 days
  Apolipoprotein B reduction: 16%
  LDL-cholesterol decrease: 10%
  Total cholesterol decrease: 7%
[4]; 28 subjects, 42 days, p<0.001
  LDL-cholesterol change: significant (p<0.001) reductions
  Total cholesterol change: significant (p<0.001) reductions
[4]; 28 subjects, p=0.001
  Apolipoprotein B change: decreased significantly
[4]; 28 subjects, p=0.003
  Apolipoprotein A1 change: significantly elevated
[4]; 200 micrograms Cr daily
  fine rash about forearms: one subject on chromium supplementation
  mouth ulcers: the other on chromium supplement
[4]; 42 days
  blood pressure change: No significant changes
  heart rate change: No significant changes
  serum triglycerides change: No significant changes
  temperature change: No significant changes
  weight change: No significant changes
[4]; 42 days, 28 subjects, p = .001
  Apo B, Chng.: -25 mg/dL
[4]; 42 days, 28 subjects, p = .003
  Apo A, Chng.: +16 mg/dl
[4]; end of 42-day treatment, mean ± SD of 28 subjects
  Apo B, Final: 130 mg/dL
[4]; final 42 days, placebo-first group, p=0.003
  LDL-cholesterol change: decreased significantly
[4]; final 42 days, placebo-first group, p=0.009
  Total cholesterol change: decreased significantly
[4]; first 6-week period, chromic tripicolinate-first group, p=0.003
  Apolipoprotein B change: significantly decreased
[4]; first 6-week period, chromic tripicolinate-first group, p=0.007
  Total cholesterol change: significantly decreased
[4]; first 6-week period, chromic tripicolinate-first group, p=0.015
  LDL-cholesterol change: significantly decreased
[4]; first 6-week period, chromic tripicolinate-first group, p=0.047
  Apolipoprotein A1 change: significantly elevated
[4]; in vivo
  other abnormalities: No other abnormalities were noted
[4]; of final 28 subjects
  subjects with decreased LDL-cholesterol: 20
  subjects with lower total cholesterol: 22
  subjects with total cholesterol elevated less than 0.1 mmole/1 (5 mg/dl): 4
  subjects with unchanged LDL-cholesterol: 3
  subjects with unchanged total cholesterol: 2
[4]; p>0.05
  HDL-cholesterol change: increased slightly but not significantly
[4]; placebo-first group, after supplementation, p=0.072
  Apolipoprotein B change: decreased, but not significantly
[4]; placebo-first group, supplementation period, p=0.007
  Apolipoprotein A1 change: increased significantly
[4]; [7]
  Apo A, Init: 147 ± 28 mg/dL
  Apo B, Init: 155 ± 50 mg/dL and 155 mg/dL
[4]; summary
  Apolipoprotein A1 change, summary: elevated; also recorded: significant elevation
  Apolipoprotein B change, summary: decreased; also recorded: significant reduction
[4]; summary of Examples 3 and 4
  LDL-cholesterol change, summary: decreased
  Total cholesterol change, summary: decreased
rats; 70 Kg human, extrapolated from rat
  dose to be ingested before any effects would be observed: > 156 grams
rats; oral suspension 100 mg, 300 mg and 500 mg in water
  deaths: No deaths occurred
rats; rats, oral
  oral lethal dose: > 2200 mg/kg
[5]
  rate of absorption greater than that of chromic chloride: about 4 times
[6]; 40 days, P=0.0056
  bicep circumference increase: 1.4±0.45 cm
[6]; 40 days, P=0.017
  calculated lean body mass increase: 1.6 kg
[6]; Student's t test, P=0.0198
  increase in lean body mass compared with placebo group: significantly greater
